Laboratory results as given in patent US20250041278A1, “TLR8 AGONIST FOR MODULATING IMMUNE RESPONSE” (The Children's Medical Center Corporation, priority 2021, published 2025).

Columns and labels:
Type in all cases: cell-based
human elderly PBMCs = test: Screen of 310 molecules for TNF production by human elderly PBMCs; settings: elderly PBMCs of 4 donors, 10% autologous plasma
Source text: (§1) FIGS. 1A-1D. Discovery of PVP-179 in a human PBMC high-throughput screen. FIG. 1A: A graphical overview depicting screen approach. From a high-throughput screen previously conducted, 310 molecules were identified to be activators of either THP-1 cells (monocyte cell line) or primary human adult peripheral blood mononuclear cells (PBMCs). These 310 molecules were assembled into a stimulation plate and then applied to the PBMCs of 4 elderly donors (cultured with 10% autologous plasma). […] Z scores were averaged across all four elderly donors. The Z score and chemical structure for PVP-179 are indicated. FIG. 1C: Human adult or elderly PBMCs (cultured with 10% autologous plasma) were stimulated with PVP-179 in a two-point concentration titration manner. After 18 hours of incubation, supernatant was processed for ELISA-based measurement of TNF production. N=4 donors. FIG. 1D: As in FIG. 1C, the supernatants were collected, and 14 cytokines were measured by multiplex assay. […] N=4 donors each.
In a previous high throughput screen (HTS), a number of hit molecules were identified as potentially activating human leukocytes. […] A separate pilot screen of 9,000 of the molecules for TNF-inducing activity in adult human peripheral blood mononuclear cells (PBMCs) subsequently identified 133 molecules. […]

[1] = test system: human adult and elderly PBMCs; test: 14-multiplex cytokine assay in PBMC supernatants
Source text: as §1
The activity of PVP-179 was confirmed in a 96-well format in both human adult and elderly PBMCs.

human (h)TLR8 = target: T1, human (h)TLR8 (Homo sapiens, UniProt Q9NR97); test: PRR ligand screening (InvivoGen) in reporter cell lines; settings: HEK reporter cells; % activity vs positive control
T1 construct: host or cells: HEK-293 reporter cells
T1 sequence (Q9NR97 27-1041): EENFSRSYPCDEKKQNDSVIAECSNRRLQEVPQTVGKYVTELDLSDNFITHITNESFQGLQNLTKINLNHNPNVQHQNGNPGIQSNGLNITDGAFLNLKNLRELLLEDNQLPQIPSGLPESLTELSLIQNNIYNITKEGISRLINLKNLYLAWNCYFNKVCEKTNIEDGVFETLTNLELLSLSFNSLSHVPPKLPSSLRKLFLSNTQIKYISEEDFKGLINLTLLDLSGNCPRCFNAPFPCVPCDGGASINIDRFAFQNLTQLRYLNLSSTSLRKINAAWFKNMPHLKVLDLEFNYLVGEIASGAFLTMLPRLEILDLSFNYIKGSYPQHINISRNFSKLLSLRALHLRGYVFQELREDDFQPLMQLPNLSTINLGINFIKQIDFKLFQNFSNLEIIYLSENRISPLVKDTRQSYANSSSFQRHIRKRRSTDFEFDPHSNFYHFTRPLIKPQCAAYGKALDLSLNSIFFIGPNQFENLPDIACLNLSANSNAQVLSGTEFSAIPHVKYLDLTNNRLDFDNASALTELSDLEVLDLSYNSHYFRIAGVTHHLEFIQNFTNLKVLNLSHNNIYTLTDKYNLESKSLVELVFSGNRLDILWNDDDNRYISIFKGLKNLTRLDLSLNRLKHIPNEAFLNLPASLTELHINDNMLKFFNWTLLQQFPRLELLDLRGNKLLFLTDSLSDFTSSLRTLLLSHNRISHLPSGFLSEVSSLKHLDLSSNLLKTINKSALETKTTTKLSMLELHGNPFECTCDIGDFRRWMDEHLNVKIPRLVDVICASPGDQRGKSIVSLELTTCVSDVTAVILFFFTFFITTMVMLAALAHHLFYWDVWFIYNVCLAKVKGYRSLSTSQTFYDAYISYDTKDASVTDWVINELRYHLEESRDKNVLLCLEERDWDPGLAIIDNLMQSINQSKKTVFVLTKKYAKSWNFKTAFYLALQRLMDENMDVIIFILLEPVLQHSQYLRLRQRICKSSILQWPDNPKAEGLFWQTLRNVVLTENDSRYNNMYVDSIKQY
Experimental: FIGS. 3A-3E. PVP-179 is a TLR8 agonist. FIG. 3A: PVP-179 was sent to InvivoGen for PRR ligand screening service. Various cells lines were utilized to screen for PVP-179-induced ([…]) activation of TLRs, NOD1/2, RIG-I/MDA-5, Dectin-1 or Mincle receptor. The heat-map depicts percentage activity compared to the positive control for each receptor. FIG. 3B: PVP-179 induced activity (% activity compared to the positive control: CL075 at 1 μg/mL) in HEK-293 cells specifically expressing hTLR8. In brief, these cells have an NF-κB/AP-1-inducible secreted embryonic alkaline phosphatase (SEAP) reporter gene which allows monitoring of signaling via TLR8. After incubation for 16-24 hours, supernatant harvested from the cells is mixed with media containing SEAP-substrate and the optical density (OD) is measured at 650 nm using a spectrophotometer. FIG. 3C: As in FIG. 3B, HEK cells specifically expressing hTLR2, hTLR7, or hTLR8, in addition to the HEK-Null cell line carrying only the reporter gene, were stimulated with the indicated concentrations of PVP-179. […] PVP-179 activity is expressed as a percentage of NF-κB induced in the cells stimulated with TNF (positive control for each cell line). […] The supernatants were harvested after 20-24 hours and SEAP production (to assess NF-κB activity) was measured using QUANTIBlue assay. […]

Compound: CCCCn1c(/N=C/c2nc3ccccc3n2C)nc2ccccc21 [PVP-179]
- TNF production, screen hit call (human elderly PBMCs): robust TNF-inducing hit
- innate immune response (cytokine responses), elder vs younger adult leukocytes ([1]; 14-multiplex assay): greater innate immune response in elder leukocytes than in younger adult controls
- proinflammatory cytokine and chemokine induction (TNF, IL-6, IL-8, IL-10, IL-12 p40, IL-12 p70, IP-10, CCL5, CCL3, MCP1, GM-CSF, IFN-γ, IFN-α2, IL1-β) ([1]; similarly to R848 at 25 μM): titration-dependent concentration of proinflammatory cytokines
- activity among all TLRs and other receptors tested (human (h)TLR8): maximal activity toward human (h)TLR8
